The source made the active and inactive calls.
Columns and labels:
[1] = HEp-2 cell cytotoxicity, dose response, cytotoxicity control for RSV inhibitor project, HTS (AID 2410); format: functional; settings: human respiratory syncytial virus
HEK293 [2] = assay: optical interference in Abeta FP readout, dose response, artefact control for IDE activator project, biochemical, fluorescence polarization (AID 588442); format: functional, cell-based; settings: Homo sapiens
HEK293 [3] = assay: HEK cell cytotoxicity by LDH release, dose response, cytotoxicity control for IDE activator project, fluorescence, HEK cells (AID 588440); format: functional, cell-based; settings: Homo sapiens;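 also: cytotoxicity by LDH release measuring loss of membrane integrity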
Insulin-degrading enzyme [4] = target: T1, Insulin-degrading enzyme (Homo sapiens, UniProt P14735); assay: activators of endogenous IDE in HEK cells, dose response, cell-based, fluorescence polarization (AID 588439); format: functional
T1 sequence (P14735 whole entry): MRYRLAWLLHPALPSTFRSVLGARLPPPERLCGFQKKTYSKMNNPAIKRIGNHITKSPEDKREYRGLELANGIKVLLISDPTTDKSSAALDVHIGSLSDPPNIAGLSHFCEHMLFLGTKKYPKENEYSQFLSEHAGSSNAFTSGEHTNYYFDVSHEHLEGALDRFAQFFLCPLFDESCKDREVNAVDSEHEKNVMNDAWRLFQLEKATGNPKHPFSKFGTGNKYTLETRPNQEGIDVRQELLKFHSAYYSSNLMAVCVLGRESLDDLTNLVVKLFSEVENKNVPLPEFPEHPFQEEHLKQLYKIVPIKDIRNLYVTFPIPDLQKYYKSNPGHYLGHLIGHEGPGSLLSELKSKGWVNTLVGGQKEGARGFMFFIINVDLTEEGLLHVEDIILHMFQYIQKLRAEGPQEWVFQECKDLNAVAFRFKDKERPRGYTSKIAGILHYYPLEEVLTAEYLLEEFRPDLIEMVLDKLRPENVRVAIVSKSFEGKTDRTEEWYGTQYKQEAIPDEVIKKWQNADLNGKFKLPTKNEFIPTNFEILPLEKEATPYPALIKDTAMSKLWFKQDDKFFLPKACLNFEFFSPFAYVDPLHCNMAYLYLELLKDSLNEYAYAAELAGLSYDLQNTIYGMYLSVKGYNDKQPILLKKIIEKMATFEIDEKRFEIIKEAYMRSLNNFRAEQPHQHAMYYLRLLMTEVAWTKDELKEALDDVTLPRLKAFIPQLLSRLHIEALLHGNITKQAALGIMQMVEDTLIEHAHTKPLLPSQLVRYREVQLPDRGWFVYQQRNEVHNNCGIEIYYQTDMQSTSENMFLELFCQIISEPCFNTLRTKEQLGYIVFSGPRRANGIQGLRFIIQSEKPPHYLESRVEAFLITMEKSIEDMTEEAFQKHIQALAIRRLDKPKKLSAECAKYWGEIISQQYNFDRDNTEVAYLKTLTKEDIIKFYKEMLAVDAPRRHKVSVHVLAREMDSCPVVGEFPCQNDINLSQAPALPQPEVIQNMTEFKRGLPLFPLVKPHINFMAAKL

Insulin-degrading enzyme [5] = target: T1, Insulin-degrading enzyme; assay: activators of recombinant IDE enzyme, dose response, counter-screen for IDE activator project, biochemical, fluorescence polarization (AID 588681)
[6] = target: T2, Rac GTPase-activating protein 1 (Homo sapiens, UniProt Q9H0H5); assay: MgcRacGAP GTPase-activating activity inhibitors, confirmation, biochemical, ADP Hunter fluorescence, primary and confirmatory (AID 624330); format: functional
T2 sequence (Q9H0H5 whole entry): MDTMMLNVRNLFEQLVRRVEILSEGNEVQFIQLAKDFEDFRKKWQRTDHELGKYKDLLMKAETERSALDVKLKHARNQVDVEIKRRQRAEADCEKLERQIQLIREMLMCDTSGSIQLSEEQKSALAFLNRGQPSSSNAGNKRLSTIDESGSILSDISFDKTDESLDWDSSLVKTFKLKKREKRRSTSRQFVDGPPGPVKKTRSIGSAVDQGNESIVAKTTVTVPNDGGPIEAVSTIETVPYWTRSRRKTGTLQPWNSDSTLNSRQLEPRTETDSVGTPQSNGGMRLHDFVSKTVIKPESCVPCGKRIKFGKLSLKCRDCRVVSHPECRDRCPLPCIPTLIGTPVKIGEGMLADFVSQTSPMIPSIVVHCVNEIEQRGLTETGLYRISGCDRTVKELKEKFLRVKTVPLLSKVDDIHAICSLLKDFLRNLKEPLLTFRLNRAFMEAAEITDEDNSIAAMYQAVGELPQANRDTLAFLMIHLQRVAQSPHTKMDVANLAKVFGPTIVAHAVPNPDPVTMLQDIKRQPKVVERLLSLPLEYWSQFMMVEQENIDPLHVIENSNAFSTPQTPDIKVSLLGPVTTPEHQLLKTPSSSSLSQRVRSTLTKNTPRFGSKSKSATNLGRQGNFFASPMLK

[7] = target: T3, DNA dC->dU-editing enzyme APOBEC-3G (Homo sapiens, UniProt Q9HC16); assay: Dose Response confirmation of small molecule APOBEC3G DNA Deaminase Inhibitors via a fluorescence-based single-stranded DNA deaminase assay. [Related pubchem assays (depositor defined):AID493012, AID493028]; format: functional
[8] = target: T3, DNA dC->dU-editing enzyme APOBEC-3G; assay: APOBEC3G deaminase inhibitors, SAR follow-up, biochemical, fluorescence, single-stranded DNA substrate (AID 602136); format: functional; settings: read-out: IC50_Mean
[9] = target: T4, DNA dC->dU-editing enzyme APOBEC-3A (Homo sapiens, UniProt P31941); assay: SAR analysis of small molecule inhibitors of APOBEC3A DNA Deaminase via a fluorescence-based single-stranded DNA deaminase assay - Set 2.; format: functional; settings: read-out: IC50_Mean
[10] = target: T4, DNA dC->dU-editing enzyme APOBEC-3A; assay: SAR analysis of small molecule inhibitors of APOBEC3A DNA Deaminase via a fluorescence-based single-stranded DNA deaminase assay.; format: functional; settings: read-out: IC50_Mean
[11] = target: T3, DNA dC->dU-editing enzyme APOBEC-3G; assay: SAR analysis of small molecule inhibitors of APOBEC3G DNA Deaminase via a fluorescence-based single-stranded DNA deaminase assay - Set 2.; format: functional; settings: read-out: IC50_Mean
[12] = target: T4, DNA dC->dU-editing enzyme APOBEC-3A; assay: APOBEC3A DNA deaminase inhibitors, dose response, biochemical (AID 504722); format: functional
[13] = target: T5, Sentrin-specific protease 7 (Homo sapiens, UniProt Q9BQF6); assay: SENP7 protease inhibitors, SAR follow-up, biochemical, luminescence, set 2 (AID 588600); format: functional
T5 sequence (Q9BQF6 whole entry): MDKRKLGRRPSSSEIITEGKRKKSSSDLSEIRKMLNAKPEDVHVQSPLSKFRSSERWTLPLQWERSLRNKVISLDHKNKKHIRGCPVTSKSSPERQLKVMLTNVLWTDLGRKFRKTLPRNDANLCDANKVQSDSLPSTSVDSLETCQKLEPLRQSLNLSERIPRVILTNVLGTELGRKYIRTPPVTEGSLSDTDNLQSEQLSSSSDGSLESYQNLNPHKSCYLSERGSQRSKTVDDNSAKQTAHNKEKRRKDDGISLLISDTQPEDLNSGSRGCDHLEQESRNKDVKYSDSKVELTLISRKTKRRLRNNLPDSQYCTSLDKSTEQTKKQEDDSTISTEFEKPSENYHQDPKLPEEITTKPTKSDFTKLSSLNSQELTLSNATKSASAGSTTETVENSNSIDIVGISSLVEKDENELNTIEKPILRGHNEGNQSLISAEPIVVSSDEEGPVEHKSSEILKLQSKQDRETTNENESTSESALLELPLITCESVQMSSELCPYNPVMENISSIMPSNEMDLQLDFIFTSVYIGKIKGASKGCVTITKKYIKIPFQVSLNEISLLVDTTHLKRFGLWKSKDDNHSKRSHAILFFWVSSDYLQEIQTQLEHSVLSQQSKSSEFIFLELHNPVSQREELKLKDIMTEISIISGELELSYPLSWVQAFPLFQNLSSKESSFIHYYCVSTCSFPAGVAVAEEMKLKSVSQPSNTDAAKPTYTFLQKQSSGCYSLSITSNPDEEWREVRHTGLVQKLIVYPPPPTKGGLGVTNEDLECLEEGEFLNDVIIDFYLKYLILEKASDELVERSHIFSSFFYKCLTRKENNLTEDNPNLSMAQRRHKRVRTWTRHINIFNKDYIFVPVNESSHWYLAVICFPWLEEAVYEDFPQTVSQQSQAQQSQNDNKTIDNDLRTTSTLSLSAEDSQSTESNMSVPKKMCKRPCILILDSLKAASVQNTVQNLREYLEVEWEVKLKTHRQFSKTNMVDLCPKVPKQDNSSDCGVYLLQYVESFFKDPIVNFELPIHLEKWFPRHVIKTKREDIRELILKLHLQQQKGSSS

[14] = target: T6, Sentrin-specific protease 6 (Homo sapiens, UniProt Q9GZR1); assay: SENP6 protease inhibitors, SAR follow-up, biochemical, luminescence, set 2 (AID 588598); format: functional
T6 sequence (Q9GZR1 whole entry): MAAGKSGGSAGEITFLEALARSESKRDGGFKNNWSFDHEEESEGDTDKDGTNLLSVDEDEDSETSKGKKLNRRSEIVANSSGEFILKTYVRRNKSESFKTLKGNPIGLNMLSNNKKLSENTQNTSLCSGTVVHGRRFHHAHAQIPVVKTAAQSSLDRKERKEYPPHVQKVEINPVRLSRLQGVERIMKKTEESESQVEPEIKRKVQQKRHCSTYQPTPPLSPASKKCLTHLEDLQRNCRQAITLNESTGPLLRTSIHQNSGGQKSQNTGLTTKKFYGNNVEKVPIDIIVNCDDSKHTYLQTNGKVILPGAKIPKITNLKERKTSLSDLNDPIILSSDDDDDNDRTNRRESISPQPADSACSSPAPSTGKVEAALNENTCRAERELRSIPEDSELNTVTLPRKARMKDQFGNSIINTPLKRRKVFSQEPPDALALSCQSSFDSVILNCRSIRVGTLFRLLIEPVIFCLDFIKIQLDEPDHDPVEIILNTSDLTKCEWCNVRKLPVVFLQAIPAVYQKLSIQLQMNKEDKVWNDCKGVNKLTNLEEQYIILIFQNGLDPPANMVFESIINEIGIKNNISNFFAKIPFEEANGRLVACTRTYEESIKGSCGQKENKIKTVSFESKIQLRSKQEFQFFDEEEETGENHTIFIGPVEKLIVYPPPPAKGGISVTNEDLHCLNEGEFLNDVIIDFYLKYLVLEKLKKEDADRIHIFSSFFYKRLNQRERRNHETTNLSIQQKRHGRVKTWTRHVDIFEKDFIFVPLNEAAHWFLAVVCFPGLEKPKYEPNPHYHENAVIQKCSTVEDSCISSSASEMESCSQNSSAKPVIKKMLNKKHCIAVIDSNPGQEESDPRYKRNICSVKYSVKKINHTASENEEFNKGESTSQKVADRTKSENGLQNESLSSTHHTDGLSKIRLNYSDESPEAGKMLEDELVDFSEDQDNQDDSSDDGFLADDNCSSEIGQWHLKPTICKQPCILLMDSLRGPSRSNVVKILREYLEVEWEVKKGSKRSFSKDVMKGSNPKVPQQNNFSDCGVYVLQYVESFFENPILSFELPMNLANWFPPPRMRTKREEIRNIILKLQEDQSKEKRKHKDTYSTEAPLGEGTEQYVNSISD

[15] = target: T7, Sentrin-specific protease 8 (Homo sapiens, UniProt Q96LD8); assay: SENP8 protease inhibitors, SAR follow-up, biochemical, luminescence, set 2 (AID 588601); format: functional
T7 sequence (Q96LD8 whole entry): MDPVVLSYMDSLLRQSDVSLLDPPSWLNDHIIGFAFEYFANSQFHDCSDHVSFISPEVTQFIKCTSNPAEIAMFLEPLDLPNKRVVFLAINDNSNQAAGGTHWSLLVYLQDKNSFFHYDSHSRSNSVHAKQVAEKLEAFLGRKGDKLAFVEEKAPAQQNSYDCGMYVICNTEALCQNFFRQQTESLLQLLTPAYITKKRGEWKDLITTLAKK

Caspase-3 = target: T8, Caspase-3 (Homo sapiens, UniProt P42574); assay: caspase-3 inhibitors as off-family protease, SAR follow-up, selectivity assay for SENP protease inhibitor project, biochemical, luminescence, set 2 (AID 588599); format: functional
T8 sequence (P42574 whole entry): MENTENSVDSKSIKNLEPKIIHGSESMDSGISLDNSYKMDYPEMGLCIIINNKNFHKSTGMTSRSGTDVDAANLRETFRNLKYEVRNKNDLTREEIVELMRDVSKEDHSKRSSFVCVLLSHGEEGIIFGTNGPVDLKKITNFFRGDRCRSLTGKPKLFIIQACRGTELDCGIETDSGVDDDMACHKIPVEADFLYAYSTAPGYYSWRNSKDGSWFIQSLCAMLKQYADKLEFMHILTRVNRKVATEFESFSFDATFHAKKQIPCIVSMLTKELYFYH

T3 sequence (Q9HC16 whole entry): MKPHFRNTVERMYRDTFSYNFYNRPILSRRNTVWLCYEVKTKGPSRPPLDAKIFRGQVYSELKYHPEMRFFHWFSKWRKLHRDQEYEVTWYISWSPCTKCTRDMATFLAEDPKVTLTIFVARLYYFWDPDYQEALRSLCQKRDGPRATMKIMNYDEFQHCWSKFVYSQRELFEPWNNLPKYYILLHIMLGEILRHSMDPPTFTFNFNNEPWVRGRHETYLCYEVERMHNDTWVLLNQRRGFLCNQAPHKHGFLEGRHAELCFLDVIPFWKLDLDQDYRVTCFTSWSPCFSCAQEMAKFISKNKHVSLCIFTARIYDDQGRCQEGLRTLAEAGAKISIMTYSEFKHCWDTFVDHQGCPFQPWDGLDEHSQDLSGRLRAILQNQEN
T4 sequence (P31941 whole entry): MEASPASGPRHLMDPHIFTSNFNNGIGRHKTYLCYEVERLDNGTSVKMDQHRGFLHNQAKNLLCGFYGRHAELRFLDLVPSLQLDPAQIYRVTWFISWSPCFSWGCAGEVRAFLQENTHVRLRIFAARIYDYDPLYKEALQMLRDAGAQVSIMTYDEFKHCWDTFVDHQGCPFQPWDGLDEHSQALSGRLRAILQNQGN

Row | IC50 [13] | IC50 [14] | IC50 (Caspase-3) | SMILES | EC50 (HEK293 [2]) | IC50 (HEK293 [3]) | EC50 (Insulin-degrading enzyme [4]) | EC50 (Insulin-degrading enzyme [5]) | IC50 [15] | other results
1 |  |  |  | COc1cc(C2Nc3cccc4cccc(c34)N2)ccc1O | > 54.7 µM (inactive) | > 89.3 µM (inactive) | > 54.7 µM (inactive) | > 54.7 µM (inactive) |  | CC50 [1]: 32.1 µM (active)
2 |  |  |  | COc1ccc(NCC(O)COc2ccc(C(C)(C)C)cc2)cc1 (centres undefined) | > 54.7 µM (inactive) | 49.1 µM (inactive) | > 54.7 µM (inactive) | > 54.7 µM (inactive) |  | 
3 |  |  |  | Cc1ccc(-c2csc3n[nH]c(=S)n23)cc1 |  |  |  |  |  | IC50 [6]: 58.1 µM (active); IC50 [7]: 1.35 µM (active); IC50 [8]: 3.48 µM (active); IC50 [9]: > 99 µM (inactive); IC50 [10]: > 99 µM (inactive); IC50 [11]: > 99 µM (inactive); IC50 [12]: > 100 µM (inactive)
4 | > 99 µM (inactive) | > 99 µM (inactive) | > 99 µM (inactive) | CNC(=O)C1Cc2ccccc2N1C(=O)C(=O)c1c(C)[nH]c2ccccc12 (centres undefined) |  |  |  |  | > 99 µM (inactive) | 
5 | > 99 µM (inactive) | > 99 µM (inactive) | > 99 µM (inactive) | CN(C)C(=O)C(=O)c1c(-c2ccccc2)[nH]c2ccc(Cl)cc12 |  |  |  |  | > 99 µM (inactive) | 
